Experimental findings from patent US10143668B2, “Hydroxy-substituted amino and ammonium derivatives and their medical use” (GRI BIO, INC., priority 2011, dated 2018) are described below.

In this experiment the test system is Akt phosphorylation on Ser473. Kind of experiment: Inhibition of activation of Akt kinase (phospho-Akt Ser473 assay in RBL-2H3 cells). Type of experiment: cell-based, rat. Particulars: IgE and antigen for 15 min. An excerpt: The mast cell degranulation assay using the RBL-2H3 cell line (see example 5) was also used to determine the status of the PI3K/Akt axis. Activation of PI3K leads to production of PIP3 on the cytosolic side of the lipid bilayer. Akt is recruited to the PIP3 domain and subsequently activated by phosphorylation on residues Ser473 and Thr308. (Franke et al., Cell 81:727-736, (1995)). Once recruited to the membrane, it is phosphorylated and activated by other kinases (Hemmings, Science 275:628-630 (1997); Hemmings, Science 276:534 (1997); Downward, Science 279:673-674 (1998); Alessi et al., EMBO J. 15:6541-6551 (1996)). Western blotting of the phosphorylated Ser473 residue on Akt (phospho-Akt Ser473) is widely used to assess the level of activation of the PI3K/Akt axis.
All buffers and solutions used for the phosphor-Akt Ser473 assay were from Meso Scale Discovery. Tris Lysis Buffer consisted of 150 mM NaCl, 20 mM Tris, pH 7.5, 1 mM EDTA, 1 mM EGTA and 1% Triton-X-100. Complete Tris Lysis Buffer was prepared prior to use by addition of protease inhibitor, phosphatase inhibitors and PMSF. […] Read Buffer T was used according to manufacturer's instructions. […]
Protein assay: protein concentration was determined using the BCA (bicinchoninic acid) Protein Assay kit according to the manufacturer's instructions. […] Plates were cooled to room temperature for 5 min and absorbance at 562 nm was measured in a multi-mode plate reader. Protein concentrations were calculated using FlexStation 3 software (SoftMax Pro version 5.3). Protein concentration of lysates was determined from a standard curve (BSA) using a linear curve fit.
Phosphoprotein assay: protein phosphorylation was determined using the MULTI-SPOT® Assay System (Mesa Scale Discovery), providing simultaneous detection of phosphorylated and total proteins. […] The optimal amount of protein was determined at 5 μg lysate per well for ERK½ and 10 μg/well for phospho-Akt Ser473. […] After a final four washes with Tris Wash Buffer 150 μl/well, Read Buffer T was added, and plates read on a SECTOR Imager 6000 plate reader. […]

Regarding `CCCCCCCCCCCCCC[N+](C)(C)CC(=O)N(C)C[C@H](O)[C@@H](O)[C@H](O)[C@H](O)CO` [Compound 1a, N-(2-(Dimethyl(tetradecyl)ammonio)acetyl)-N-methyl-D-glucamine chloride], the “Level of phospho-Akt Ser473” value (1 μM) is on record as 81.8 ± 42.5 % positive control, the “Level of phospho-Akt Ser473” value (5 μM) was determined as 22.6 ± 15.7 % positive control and the “Level of phospho-Akt Ser473” value (25 μM) amounted to 6.8 ± 1.8 % positive control.
